A short description of data set [1]: Sensory evaluation on damaged hair after using organic ammonium salt. Further details: species or system human. As to conditions: damaged hair, 80 wt % aqueous solution. Here is the method:
Here, an 80 wt % aqueous solution(s) of each of the compounds B11, B12, B23, B26 and B27 (content in terms of anhydride in the cases of the compounds B11, B12 and B23) were prepared and used as samples. Next, one minute was spent in evenly applying 10.0 g of each sample to a bundle of the damaged hairs weighing about 10 g, using a brush; the bundle of the damaged hairs was then left for 5 min. After leaving it for 5 min, the bundle of the damaged hairs was rinsed with a hot water of 40° C. for 30 sec, and evaluated was a finger-combing capability at the time of performing washing. The hair bundle that had been rinsed was then dried with a towel and further subjected to air drying for a day, followed by evaluating items such as elasticity/resilience (feeling by bare hands), cohesiveness, surface smoothness and non-waviness, from the perspective of superiority or inferiority to a test hair bundle(s) uncoated with the sample.

A short description of data set [2]: Water retention property and adherability with respect to healthy hair. Further details: species or system human.
The nature of data set [3]: Affinity to hair (contact angle). As to conditions: 50 wt % aqueous solution; condition B (hair iron, 160° C.).
The nature of data set [4]: Sensory evaluation on healthy hair after using organic ammonium salt. Further details: species or system human; key to When washing: Finger-combing capability: ⊚: Superior; ∘: Favorable; Δ: No change; x: Inferior. As to conditions: healthy hair, 80 wt % aqueous solution. Here is the method: Here, an 80 wt % aqueous solution(s) of each of the compounds B11, B12, B23, B26 and B27 (content in terms of anhydride in the cases of the compounds B11, B12 and B23) were prepared and used as samples. Next, one minute was spent in evenly applying 10.0 g of each sample to a bundle of the healthy hairs weighing about 10 g, using a brush; the bundle of the healthy hairs was then left for 5 min. After leaving it for 5 min, the bundle of the healthy hairs was rinsed with a hot water of 40° C. for 30 sec, and evaluated was a finger-combing capability at the time of performing washing. The hair bundle that had been rinsed was then dried with a towel and further subjected to air drying for a day, followed by evaluating items such as flexibility, finger-combing capability, texture, elasticity/resilience (feeling by bare hands), volume increase (visual evaluation), cohesiveness, moist feeling, surface smoothness, non-stickiness (feeling by bare hands) and gloss (visual evaluation), from the perspective of superiority or inferiority to a test hair bundle(s) uncoated with the sample.

Data set [5] in a line: Water confinement property test (barrier property). To be noted: 80 wt % aqueous solution, 0.01 mL/cm^2 on filter paper, 40° C. and 25% RH, 24 hours. Type of data set: physicochemical. As for the experimental part: Next, 20.0 g of an ion-exchange water was put into a 40 mL pierce vial bottle (by AS ONE Corporation.), followed by removing an inner lid (rubber plug) of the pierce vial bottle, placing on the pierce vial bottle the filter paper to which each sample had been applied, and then plugging the bottle with an outer lid.
Further, Wm1, Wm2, Sm1 and Sm2 in the formula below respectively represent the following numerical values.
Wm1: Weight of ion-exchange water in vial before storage (using filter paper to which only ion-exchange water had been applied)
Wm2: Weight of ion-exchange water in vial after 24 hours (using filter paper to which only ion-exchange water had been applied)
Sm1: Weight of ion-exchange water in vial before storage (using filter paper to which sample had been applied)
Sm2: Weight of ion-exchange water in vial after 24 hours (using filter paper to which sample had been applied)

The next data set has as its system Tyrosinase. Put plainly: Whitening effect: tyrosinase activity inhibition test. Type of data set: biochemical. To be noted: compound concentration 500 μg/mL; substrate D, L-DOPA; room temperature for a week. As for the experimental part: With regard to a 50 wt/% aqueous solution of each of the compounds C46, C49 and C101, a whitening effect was confirmed via a tyrosinase activity inhibition test. Tyrosinase (by SIGMA-ALDRICH) was dissolved with a 67 mM phosphate buffer solution (pH 6.8) so that the concentration of the tyrosinase would be 0.2 mg/mL, thereby obtaining an enzyme solution. Further, a substrate solution was prepared by dissolving 3 mg of D, L-DOPA (by Tokyo Chemical Industry Co., Ltd.) into 10 mL of the 67 mM phosphate buffer solution. […] Next, 80 μL of the substrate solution was quickly added to the preincubated solution, and an absorbance (A1) at 475 nm immediately after the addition of the substrate solution was then measured. Further, after leaving this solution to stand still at room temperature for a week, an absorbance (A2) at 475 nm was again measured.
In addition, as a control, there were prepared samples containing an ultrapure water instead of the compounds of the working examples; and in a similar manner as above, there were measured an absorbance (A3) at 475 nm immediately after the addition of the substrate, and an absorbance (A4) at 475 nm after leaving the solution at room temperature for a week.
An inhibition rate was calculated with the following formula.

Data set [6] can be described thus: Stability of ascorbic acid-based compound (coloration). Format: physicochemical. Further details: key to Appearance (Visual evaluation) Immediately after preparatiom / Appearance (Visual evaluation) After 7 days 50° C. / Appearance (Visual evaluation) After 7 days Room temperature: ⊚: Colorless and transparent; ∘: Light yellow; Δ: Yellow; x: Brown to black. As to conditions: 33 wt % aqueous solution. Here is the method:
With regard to a 33 wt/% aqueous solution of each of the compounds C46, C49 and C98 to C100 and water, a stability in an aqueous solution condition was visually evaluated. An evaluation method was such that there was prepared a 33 wt % aqueous solution of each of the compounds C46, C49 and C98 to C100, the aqueous solution was then left to stand still at room temperature or in a thermostatic bath of 50° C. for seven days; coloration before and after the still standing was visually confirmed. The evaluation criteria were as follows. • ⊚: Colorless and transparent • ∘: Light yellow • Δ: Yellow • x: Brown to black

A short description of data set [7]: Water retention property test 1. As to conditions: 80 wt % aqueous solution. Type of data set: physicochemical. Here is the method: A moisture rate after 24 hours was again measured (post-test moisture rate: B), followed by using the formula below to calculate a rate of reduction in moisture so as to evaluate the water retention property. • Pre-test moisture rate: A (%) • Post-test moisture rate: B (%)

Data set [8] is described as follows: Water retention property and adherability with respect to damaged hair. Further details: species or system human. To be noted: concentration 50 wt % (Table 11).
Protocol: In the following evaluations, a human black hair produced by Beaulax Co., Ltd was used as a healthy hair. A damaged hair was prepared by repeatedly having the healthy hair permed and bleached three times.
A damaged hair was prepared by the following method.
A damaged hair was produced by performing these perm treatment and bleach treatment three times.

As to `NC(CO)(CO)CO.O=C(O)CO` [Compound B12], in data set [1], the “After air drying: Cohesiveness of hair” value was “◯~Δ”, the “After air drying: Elasticity/Resilience” value is given as “◯~Δ”, the “After air drying: Smoothness of hair surface” value is given as “◯~Δ” and the “After air drying: Suppression of hair waviness” value is reported as “◯”. The “When washing: Finger-combing capability” value in data set [1] is “◯~Δ”. Moreover, the Compound adhesion rate in [2] (healthy hair immersed 60 min in 80 wt % aqueous solution) is 1.6%. Further, in data set [2] (healthy hair immersed 60 min in 80 wt % aqueous solution, after 24 hours at 40° C., 35 to 40% RH, pre-test 7.6%), the Post-test moisture rate is given as 5.4%. The “Rate of reduction in moisture” value in [2] (healthy hair, 80 wt % aqueous solution, 24 hours at 40° C., 35 to 40% RH) amounted to 29%. In addition, the “Contact angle of water droplet on treated hair” value in data set [3] was “infiltrated the hair”. Further, in data set [4], the “After air drying: Cohesiveness of hair” value is listed as “◯~Δ”, the “After air drying: Elasticity/Resilience” value is “◯~Δ”, the “After air drying: Finger-combing capability” value is listed as “◯~Δ” and the “After air drying: Flexibility” value is listed as “◯~Δ”. Further, in [4], the “After air drying: Gloss of hair” value was “◯~Δ”, the “After air drying: Moist feeling” value is given as “◯~Δ”, the “After air drying: Non-stickiness of hair surface” value is recorded as “◯~Δ” and the “After air drying: Smoothness of hair surface” value is on record as “◯~Δ”. Further, in data set [4], the “After air drying: Texture” value is given as “◯~Δ” and the “After air drying: Volume increase” value is “◯~Δ”. The “When washing: Finger-combing capability” value in data set [4] (versus uncoated hair bundle) is “⊚”.

In the case of `NC(CO)(CO)CO.O=C1OC(C(O)CO)C(O)=C1O` (stereo not shown) [Compound C49], the “Water evaporation inhibition rate” value in data set [5] was 32.19%. For the same molecule, the “Tyrosinase activity inhibition rate” value in the data set with Tyrosinase stood at 95.8%. For the same molecule, in data set [6], the “Appearance (Visual evaluation) After 7 days 50° C.” value was “Δ”, the “Appearance (Visual evaluation) After 7 days Room temperature” value is listed as “○” and the “Appearance (Visual evaluation) Immediately after preparatiom” value is “⊚”. Besides, the “Coloration of aqueous solution (stability)” value in data set [6] (room temperature or 50° C., seven days) is “significant improvements in coloration”. The “Water retention property test 1 Pre-test moisture rate” value in data set [7] is 20.0%. Moreover, in [7] (24 hours at 40° C. and 25% RH), the “Water retention property test 1 Post-test moisture rate” value is recorded as 19.4% and the “Water retention property test 1 Rate of reduction in moisture” value is listed as 3.0%.

Regarding `CC(O)C(=O)O` (stereo not shown) [lactic acid, reference compound], the Hair adhesion rate turned out to be 1.1% in data set [2] (healthy hair, concentration 50 wt % (Table 11)) and 1.1% in data set [8].

The record behind these values is patent US20250090437A1, “COSMETIC COMPOUNDING AGENT, COSMETIC AND PRODUCTION METHOD THEREOF” (MIYOSHI OIL & FAT CO., LTD., priority 2019, published 2025).
